From PMC7060258 (Scientific Reports, 2020)

Key:
rat = conditions: cited from earlier work
[1] = tested on: murine neuroblastoma Neuro2a cells; experiment: Intracellular ROS formation level (H2DCF-DA); type: cell-based; conditions: 6-OHDA 25 µM alone
Protocol: We estimated whether rHCIQ2c1 is able to inhibit reactive oxygen species (ROS) production. After incubation of Neuro2a cells with rHCIQ2c1 (up to 10 µM) and 6-OHDA (25 µM), ROS content was evaluated by measurement of dichlorofluorescin intensity.
The intracellular ROS level was detected using 2,7-dichlordihydrofluorescein diacetate (H2DCF-DA) solution (Molecular Probes, final concentration 10 µM). In this study, mouse neuroblastoma Neuro2a cells seeded on 96-well plates were washed twice with serum-free DMEM and thereafter incubated for 1 h in serum-free MEM medium in the presence of compounds in concentrations from 10 pM to 10 µM. Cell were treated with 6-OHDA (25 μM) for 30 min at 37 °C with 5% CO2. Followed by treatment with 6-OHDA, the cells were washed once with PBS. After washing with serum-free DMEM medium, the cells were loaded with H2DCF-DA for 30 min. The intensity of dichlorofluorescin fluorescence was measured with plate reader PHERAstar FS (BMG Labtech, Germany) at λex = 485 nm and λem = 518 nm. The cytoprotective effect of peptides and the increase in cell viability under their action was calculated as a percentage, taking the cell viability treated with 6-OHDA as 100%.

Row | Compound | Effect on MPTP-induced neurodegeneration and rat behavioral disturbances (rat) | ROS level [1]
1 | Nc1ccncc1 [4-aminopyridine] | suppresses MPTP-induced neurodegeneration and rat behavioral disturbances | 
2 | NCCc1cc(O)c(O)cc1O [6-OHDA, 6-hydroxydopamine, reference compound] |  | highest ROS level
